Experimental data reported in PMC5302078 (Journal of Biomolecular Screening, 2016).

Molecular target: T1, breast cancer resistance protein (BCRP) (Homo sapiens, UniProt Q9UNQ0)
T1 sequence (Q9UNQ0 1-655): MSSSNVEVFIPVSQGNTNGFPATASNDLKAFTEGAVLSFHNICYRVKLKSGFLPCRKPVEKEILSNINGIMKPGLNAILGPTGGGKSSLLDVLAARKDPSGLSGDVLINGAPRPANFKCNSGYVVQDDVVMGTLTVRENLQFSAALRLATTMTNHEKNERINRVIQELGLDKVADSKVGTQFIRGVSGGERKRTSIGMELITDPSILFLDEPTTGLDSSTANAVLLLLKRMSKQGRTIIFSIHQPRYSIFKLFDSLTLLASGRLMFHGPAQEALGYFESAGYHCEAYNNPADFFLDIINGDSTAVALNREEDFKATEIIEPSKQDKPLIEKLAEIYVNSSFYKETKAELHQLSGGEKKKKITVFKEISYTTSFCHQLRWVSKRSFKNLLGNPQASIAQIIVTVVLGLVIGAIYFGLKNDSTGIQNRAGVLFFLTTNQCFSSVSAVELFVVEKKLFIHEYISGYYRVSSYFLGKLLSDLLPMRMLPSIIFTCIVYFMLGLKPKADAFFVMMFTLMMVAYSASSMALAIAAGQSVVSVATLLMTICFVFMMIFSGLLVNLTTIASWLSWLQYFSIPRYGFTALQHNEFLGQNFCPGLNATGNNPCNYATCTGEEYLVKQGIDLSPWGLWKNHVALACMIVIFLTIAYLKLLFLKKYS
Assay: mitoxantrone accumulation in BCRP-overexpressing PLB985 cells, flow cytometry
Type: cell-based

Compound	IC50 [nM]
COc1cc(N)c(Cl)cc1C(=O)NC1CCN(CCCOc2ccc(F)cc2)CC1OC (centres unmarked) [cisapride]	400 ± 100
O=C(Nc1c(Cl)cncc1Cl)c1ccc(OC(F)F)c(OCC2CC2)c1 [roflumilast]	900 ± 200
